Laboratory results reported in patent US10813932B2, “1-pyrazolyl-3-(4-((2-anilinopyrimidin-4-yl) oxy) napththalen-1-yl) ureas as P38 MAP knase inhibitors” (Respivert Limited, priority 2011, dated 2020).

Experiments:
[1] = system: Balb/c mice; experiment: LPS-induced neutrophil accumulation in mice; format: in vivo
Procedure: Non-fasted Balb/c mice were dosed by the intra tracheal route with either vehicle, or the test substance at the indicated times (within the range 2-8 hr) before stimulation of the inflammatory response by application of an LPS challenge. At T=0, mice were placed into an exposure chamber and exposed to LPS (7.0 mL, 0.5 mg/mL solution in PBS) for 30 min). After a further 8 hr the animals were anesthetized, their tracheas cannulated and BALF extracted by infusing and then withdrawing from their lungs 1.0 mL of PBS via the tracheal catheter. Total and differential white cell counts in the BALF samples were measured using a Neubaur haemocytometer. Cytospin smears of the BALF samples were prepared by centrifugation at 200 rpm for 5 min at RT and stained using a DiffQuik stain system (Dade Behring). Cells were counted using oil immersion microscopy. Data for neutrophil numbers in BAL are shown as mean±S.E.M. (standard error of the mean). The percentage inhibition of neutrophil accumulation was calculated for each treatment relative to vehicle treatment.

[2] = system: A/J mice; experiment: Cigarette smoke model; format: in vivo
Procedure: A/J mice (males, 5 weeks old) were exposed to cigarette smoke (4% cigarette smoke, diluted with air) for 30 min/day for 11 days using a Tobacco Smoke Inhalation Experiment System for small animals (Model SIS-CS; Sibata Scientific Technology, Tokyo, Japan). Test substances were administered intra-nasally (35 μL of solution in 50% DMSO/PBS) once daily for 3 days after the final cigarette smoke exposure. At 12 hr after the last dosing, each of the animals was anesthetized, the trachea cannulated and bronchoalveolar lavage fluid (BALF) was collected. The numbers of alveolar macrophages and neutrophils were determined by FACS analysis (EPICS® ALTRA II, Beckman Coulter, Inc., Fullerton, Calif., USA) using anti-mouse MOMA2 antibody (macrophage) or anti-mouse 7/4 antibody (neutrophil). BALF was centrifuged and the supernatant was collected. The level of keratinocyte chemoattractant (KC; CXCL1) in BALF was quantitated using a Quentikine® mouse KC ELISA kit (R&D systems, Inc., Minneapolis, Minn., USA).

For `Cc1ccc(-n2nc(C(C)(C)C)cc2NC(=O)Nc2ccc(Oc3ccnc(Nc4ccccc4)n3)c3ccccc23)cc1` [Example 1, 1-(3-(tert-Butyl)-1-(p-tolyl)-1H-pyrazol-5-yl)-3-(4-(2-(phenylamino)pyrimidin-4-yloxy)naphthalen-1-yl)urea], the LPS-induced neutrophil accumulation [1] was “dose dependent inhibition”, the “cigarette smoke induced CXCL1 (KC) production in BALF” value [2] was “inhibited” and the “macrophage accumulation in BALF induced by cigarette smoke” value [2] was “dose-dependent inhibition”. For the same compound, the “neutrophil accumulation in BALF induced by cigarette smoke” value [2] was “dose-dependent inhibition”.
